# Reference: patent US20250188057A1, “NON-AROMATIC CYCLIC-PYRIMIDINE ANALOGS AS GLUCOSYLCERAMIDE SYNTHASE INHIBITORS” (Merck Sharp & Dohme LLC, priority 2022, published 2025)
# Target: glucosylceramide synthase (GCS) (Homo sapiens (Human), UniProt Q16739)
# Test: UDP-Glo glucosylceramide synthase biochemical assay
# Details: endogenous GCS in Golgi preparations isolated from human A375 malignant melanoma skin cells; UDP detection by luminescence
# Outline: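 Endogenous GCS in A375 Golgi preparations (1.5 μg total protein) was preincubated with compound for 30 min at RT, then reacted with UDP-glucose and ceramide for 20 h at RT. UDP was detected by luciferase luminescence, normalized to DMSO and reference-inhibitor controls, with EC50 and % Emax from a 4PL fit.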
# Sequence of glucosylceramide synthase (GCS) (Q16739 whole entry): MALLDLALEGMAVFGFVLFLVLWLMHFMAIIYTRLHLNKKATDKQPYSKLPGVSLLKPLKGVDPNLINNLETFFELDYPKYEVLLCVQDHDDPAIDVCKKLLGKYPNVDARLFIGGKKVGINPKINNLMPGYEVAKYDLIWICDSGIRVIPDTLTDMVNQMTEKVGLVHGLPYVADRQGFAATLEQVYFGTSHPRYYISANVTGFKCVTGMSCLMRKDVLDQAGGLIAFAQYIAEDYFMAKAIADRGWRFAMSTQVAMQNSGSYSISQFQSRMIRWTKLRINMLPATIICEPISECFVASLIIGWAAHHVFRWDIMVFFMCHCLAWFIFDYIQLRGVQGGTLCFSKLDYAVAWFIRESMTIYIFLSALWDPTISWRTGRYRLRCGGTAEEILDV
row,Structure (SMILES),IC50
1,"Cc1nc(N2CC(c3nc4ccccc4n3C)C2)cc(N2CC(CC(C)C)CC2=O)n1 (centres unmarked) [Compound 117, 4-isobutyl-1-(2-methyl-6-(3-(1-methyl-1H-benzo[d]imidazol-2-yl)azetidin-1-yl)pyrimidin-4-yl)pyrrolidin-2-one]",1140 nM
2,"Cc1nc(N2CC(c3nc4ccccc4[nH]3)C2)cc(N2CC(CC(C)C)CC2=O)n1 (centres unmarked) [Compound 118, 1-(6-(3-(1H-benzo[d]imidazol-2-yl)azetidin-1-yl)-2-methylpyrimidin-4-yl)-4-isobutylpyrrolidin-2-one]",2870 nM
3,"Cc1nc(N2CC(c3nc4ccccc4n3C)C2)cc(N2CC(c3ccccc3)CC2=O)n1 (centres unmarked) [Compound 119, 1-(2-methyl-6-(3-(1-methyl-1H-benzo[d]imidazol-2-yl)azetidin-1-yl)pyrimidin-4-yl)-4-phenylpyrrolidin-2-one]",3030 nM
4,"Cc1nc(N2CC(c3nc4ccccc4n3C)C2)cc(N2CC3(CCCC3)CC2=O)n1 [Compound 120, 2-(2-methyl-6-(3-(1-methyl-1H-benzo[d]imidazol-2-yl)azetidin-1-yl)pyrimidin-4-yl)-2-azaspiro[4.4]nonan-3-one]",4130 nM
5,"COC(=O)c1cc(N2CC(c3nc4ccccc4n3C)C2)nc(C)n1 [Compound 121, methyl 2-methyl-6-(3-(1-methyl-1H-benzo[d]imidazol-2-yl)azetidin-1-yl)pyrimidine-4-carboxylate]",2820 nM
6,"C=Cc1cc(N2CC(c3nc4ccccc4n3C)C2)nc(C)n1 [Compound 122, 1-methyl-2-(1-(2-methyl-6-vinylpyrimidin-4-yl)azetidin-3-yl)-1H-benzo[d]imidazole]",3430 nM
7,"COc1ccc(N2CCC3(CCN(c4nc(C5CC5)ncc4CO)C3)C2)cc1 (centres unmarked) [Compound 125, (2-cyclopropyl-4-(7-(4-methoxyphenyl)-2,7-diazaspiro[4.4]nonan-2-yl)pyrimidin-5-yl)methanol]",902 nM

# The remaining lines, values ahead:
row,IC50,Structure (SMILES)
1,3330 nM,"OCc1c(Cl)nc(C2CC2)nc1N1CCc2nc(C3CC3)sc2C1 [Compound 114, (4-chloro-2-cyclopropyl-6-(2-cyclopropyl-6,7-dihydrothiazolo[5,4-c]pyridin-5(4H)-yl)pyrimidin-5-yl)methanol]"
2,7.5 nM,"OCc1c(Cl)nc(C2CC2)nc1NC1CCCc2sc(C3CCCCC3)nc21 (centres unmarked) [Compound 115, (4-chloro-6-((2-cyclohexyl-4,5,6,7-tetrahydrobenzo[d]thiazol-4-yl)amino)-2-cyclopropylpyrimidin-5-yl)methanol]"
3,3910 nM,"CCC(C)c1nc2c(s1)CCCC2Nc1nc(C2CC2)nc(Cl)c1CO (centres unmarked) [Compound 116, (4-((2-(sec-butyl)-4,5,6,7-tetrahydrobenzo[d]thiazol-4-yl)amino)-6-chloro-2-cyclopropylpyrimidin-5-yl)methanol]"
4,841 nM,"Cc1nc2c(s1)CCCC2Nc1nc(C2CC2)nc(Cl)c1C(F)F (centres unmarked) [Compound 123, N-(6-chloro-2-cyclopropyl-5-(difluoromethyl)pyrimidin-4-yl)-2-methyl-4,5,6,7-tetrahydrobenzo[d]thiazol-4-amine]"
5,422 nM,"Cc1nc2c(s1)CCCC2Nc1nc(C2CC2)nc(C)c1C#N (centres unmarked) [Compound 124, 2-cyclopropyl-4-methyl-6-((2-methyl-4,5,6,7-tetrahydrobenzo[d]thiazol-4-yl)amino)pyrimidine-5-carbonitrile]"
6,971 nM,"Cc1nc2c(s1)C(Oc1nc(C3CC3)ncc1C#N)CCC2 (centres unmarked) [Compound 126, 2-cyclopropyl-4-((2-methyl-4,5,6,7-tetrahydrobenzo[d]thiazol-7-yl)oxy)pyrimidine-5-carbonitrile]"

# Tested on: GD and PD patient-derived induced pluripotent stem cell (iPSC) neurons
# Test: not given
# Details: Zunke, F. et al., Neuron 2018; cited from earlier work
row,Structure (SMILES),formation of pathological α-synuclein aggregates
1,"CCCCCCCC(=O)N[C@H](CN1CCCC1)[C@H](O)c1ccc2c(c1)OCCO2 [eliglustat, Eliglustat]",reverse the formation of pathological α-synuclein aggregates
